Experimental data: patent publication US20150336919A1, “Sesquiterpene lactone-based pharmaceutical composition for treating gastrointestinal diseases” (CHO DANG PHARM. CO., LTD., priority 2012, published 2015)

Tests used:
[1] = system: HCl-Ethanol inducing gastritis model; experiment: HCl-Ethanol inducing gastritis model; assay type: in vivo, white rats
Protocol: After white rats have been fasted for 24 hours, CD-101, CD-102 and CD-103 compound have been orally administered according to method disclosed in Mizui et al., Jap. J. Pharmacol. 33: pp. 939-945 (1983). After 1 hour, 1.5 ml of 60% ethanol including 150 mM HCl has been orally administered to each animal. 1 hour later, animals have been sacrificed by cervical dislocation. After removing the stomach, the stomach has been fixed by injection of 13 ml of 2% formalin for 1 hour. After fixed stomach has been spread out, the lesion area has been measured using the photo by digital camera. Computer program Image J 1.38 (NIH, Bethesda, Md.) has been applied for measuring gastric lesion area (mm^2) The lesion inhibition rate has been calculated according to following equation. Further, 50% effective dose (ED50) has been also calculated using regression analysis.
Lesion inhibition rate(%)={gastric lesion area of control group(mm^2)−gastric lesion area of drug administration group(mm^2)}/gastric lesion area of control group(mm^2)×100

[2] = system: indomethacin inducing stomach ulcer model; experiment: Indomethacin inducing stomach ulcer model; assay type: in vivo, white rats; settings: oral
Protocol: After white rats have been fasted for 24 hours, CD-101, CD-102 and CD-103 compound have been orally administered according to method disclosed in Yamasaki et al., Jap. J. Pharmacol. 49: pp. 441-448 (1989). After 1 hour, indomethacin (50 mg/kg) has been orally administered to each animal After fasting for 5 hours, animals have been sacrificed by cervical dislocation. After removing the stomach, the stomach has been fixed by injection of 13 ml of 2% formalin for 1 hour. After fixed stomach has been spread out, the lesion area has been measured using the photo by digital camera. Computer program Image J 1.38 (NIH, Bethesda, Md.) has been applied for measuring gastric lesion area (mm^2) The lesion inhibition rate and 50% effective dose (ED50) have been calculated as the same manner of HCl-EtOH model.

[3] = system: Chinese hamster lung (CHL) cell; experiment: Chromosomal aberration test using Chinese hamster lung (CHL) cell; assay type: cell-based; settings: for Chromosomal aberration test result: dose not given
From the text: For measuring the induction of chromosomal aberration, the chromosomal aberration test has been carried out using Chinese hamster lung (CHL) cell. 2 kinds of methods have been adopted, such as, metabolic activation method (+S9) using metabolic activation system and direct method (−S9) without metabolic activation system.
For determining the test material reacting concentration, the cell growth inhibition test has been carried out. The test material has been dissolved and diluted in dimethyl sulfoxide (DMSO). Regardless of metabolic activation system, 12 concentration steps (2.43, 4.87, 9.75, 19.5, 39.1, 78.1, 156.3, 312.5, 625, 1250, 2500, 5000 μg/ml) of test material have been prepared. The cells have been cultured for 24 hours as the same way of main test. […] The medium has been further cultured for 18 hours.
Based upon the data of cell growth inhibition test, maximum concentration has been determined when the cell growth has been inhibited up to 50% as the relative cell numbers.
Regardless of metabolic activation system, the test materials have been prepared after 24 hours from the initiation of test. Then, the number of chromosomal aberration has been counted.

[4] = +S9 (metabolic activation method)

C=C1C(=O)O[C@@H]2[C@@H]3[C@@H](CC[C@@]3(C)O)C(=C)CC[C@@H]12 [CD-102]
inhibition at 1 mg/kg ([1]; Rattus norvegicus, oral, dose 1 mg/kg, read-out: Lesion inhibition rate): 43% | inhibition at 3 mg/kg ([1]; Rattus norvegicus, oral, dose 3 mg/kg, read-out: Lesion inhibition rate): 70.4% | inhibition at 10 mg/kg ([1]; Rattus norvegicus, oral, dose 10 mg/kg, read-out: Lesion inhibition rate): 94.9% | 50% effective dose (ED50) ([1]; oral, regression analysis): 1.31 mg/kg | inhibition at 1 mg/kg ([2]; Rattus norvegicus, dose 1 mg/kg, read-out: Lesion inhibition rate): 41.6% | inhibition at 3 mg/kg ([2]; Rattus norvegicus, dose 3 mg/kg, read-out: Lesion inhibition rate): 56.1% | inhibition at 10 mg/kg ([2]; Rattus norvegicus, dose 10 mg/kg, read-out: Lesion inhibition rate): 77.2% | 50% effective dose (ED50) ([2]; regression analysis): 1.82 mg/kg | Chromosomal aberration test results ([3]; +S9, dose 5 μg/kg): negative | Chromosomal aberration test results ([3]; +S9, dose 20 μg/kg): negative | Cytotoxicity ([3]; CHL cell): neither cytotoxicity | Induction of chromosomal aberration ([3]; CHL cell): do not induce the chromosomal aberration | Chromosomal aberration test results ([3]; −S9, dose 1.25 μg/kg): negative | Chromosomal aberration test results ([3]; −S9, dose 5 μg/kg): negative

CC1=C2C3OC(=O)[C@@H](C)[C@@H]3CC[C@@]2(C)C=CC1=O (stereo partly shown) [reference compound]
Lesion inhibition rate ([1]; Table 2, ineffective compounds, dose not given): no effect

C=C1C(=O)O[C@@H]2[C@@H]3[C@@H](CC[C@@]3(C)O)[C@](C)(OC)CC[C@@H]12 [CD-103]
Chromosomal aberration test results ([3]; +S9, dose 2.5 μg/kg): negative | Chromosomal aberration test results ([3]; +S9, dose 5 μg/kg): negative | Induction of chromosomal aberration ([3]; CHL cell): do not induce the chromosomal aberration | Chromosomal aberration test results ([3]; −S9, dose 0.625 μg/kg): negative | Chromosomal aberration test results ([3]; −S9, dose 1.25 μg/kg): negative

CO[C@@]12[C@H](COC(N)=O)C3=C(C(=O)C(C)=C(N)C3=O)N1C[C@@H]1N[C@@H]12 [Mitomycin C, reference compound]
Chromosomal aberration test results ([3]; −S9, dose 0.5 μg/kg): positive

C=C1C(=O)O[C@@H]2/C=C(\C)CC/C=C(\C)C[C@@H](OC(C)=O)C12 (stereo partly shown) [reference compound]
Chromosomal aberration test result [3, 4]: positive positive | Chromosomal aberration test result ([3]; −S9 (direct method)): positive positive

CC(=O)O[C@@H]1/C=C(\C)CCC/C(C)=C/[C@H]2OC(=O)[C@H](CN(C)C)C12 (stereo partly shown) [reference compound]
Chromosomal aberration test result [3, 4]: positive positive | Chromosomal aberration test result ([3]; −S9 (direct method)): positive positive

C=C1C(=O)O[C@@H]2[C@@H](O)[C@]3(C)CC[C@H]3[C@](C)(OC)CC[C@@H]12 [CD-101]
Chromosomal aberration test results ([3]; +S9, dose 20 μg/kg): negative | Chromosomal aberration test results ([3]; +S9, dose 40 μg/kg): negative | Induction of chromosomal aberration ([3]; CHL cell): do not induce the chromosomal aberration | Chromosomal aberration test results ([3]; −S9, dose 5 μg/kg): negative

C=C1C(=O)O[C@@H]2/C=C(\C)CCC(O)C(C)(O)C[C@@H](OC(C)=O)C12 (stereo partly shown) [reference compound]
Chromosomal aberration test result [3, 4]: positive positive | Chromosomal aberration test result ([3]; −S9 (direct method)): positive positive
